Residues, ends and D or L forms follow the SMILES beside them.
Experiments:
[1] = molecular target: Neuronal acetylcholine receptor; alpha3/beta2 (Homo sapiens, UniProt P17787+P32297); assay: Inhibition of alpha3beta2 nAChR; assay type: protein-complex assay
[2] = molecular target: Neuronal acetylcholine receptor; alpha6/beta2 (Homo sapiens, UniProt P17787+Q15825); assay: Inhibition of alpha6beta2 nAChR; assay type: protein-complex assay
Macaca mulatta [3] = species: Macaca mulatta; assay: Selectivity ratio of monkey alpha-6-alpha-4-beta-2 nAChR over monkey alpha-6-(non-alpha-4)-beta-2 nAChR
Macaca mulatta [4] = species: Macaca mulatta; assay: Binding affinity to monkey alpha-6-(non-alpha-4)-beta-2 nAChR
Macaca mulatta [5] = species: Macaca mulatta; assay: Binding affinity to monkey alpha-6-alpha-4-beta-2 nAChR
[6] = Selectivity ratio of IC50 for alpha6beta2 nAChR to IC50 for alpha3beta2 nAChR
[7] = Selectivity for alpha3beta2 nAChR over alpha6beta2 nAChR

Neuronal acetylcholine receptor; alpha6/beta2, sequence (P17787 whole entry): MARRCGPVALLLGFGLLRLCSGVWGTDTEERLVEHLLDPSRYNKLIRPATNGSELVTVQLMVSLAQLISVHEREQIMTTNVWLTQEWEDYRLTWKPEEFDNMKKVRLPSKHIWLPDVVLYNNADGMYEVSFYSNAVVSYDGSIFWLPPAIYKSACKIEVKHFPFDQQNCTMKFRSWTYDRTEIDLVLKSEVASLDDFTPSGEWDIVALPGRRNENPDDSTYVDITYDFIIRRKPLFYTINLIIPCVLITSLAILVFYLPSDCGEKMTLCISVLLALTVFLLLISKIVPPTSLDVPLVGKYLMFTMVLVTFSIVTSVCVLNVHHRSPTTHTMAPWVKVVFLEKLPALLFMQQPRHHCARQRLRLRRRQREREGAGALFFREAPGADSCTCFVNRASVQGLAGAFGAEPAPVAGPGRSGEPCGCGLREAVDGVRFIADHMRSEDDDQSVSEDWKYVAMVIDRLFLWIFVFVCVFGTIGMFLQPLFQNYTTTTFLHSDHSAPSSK
Neuronal acetylcholine receptor; alpha6/beta2, sequence (Q15825 whole entry): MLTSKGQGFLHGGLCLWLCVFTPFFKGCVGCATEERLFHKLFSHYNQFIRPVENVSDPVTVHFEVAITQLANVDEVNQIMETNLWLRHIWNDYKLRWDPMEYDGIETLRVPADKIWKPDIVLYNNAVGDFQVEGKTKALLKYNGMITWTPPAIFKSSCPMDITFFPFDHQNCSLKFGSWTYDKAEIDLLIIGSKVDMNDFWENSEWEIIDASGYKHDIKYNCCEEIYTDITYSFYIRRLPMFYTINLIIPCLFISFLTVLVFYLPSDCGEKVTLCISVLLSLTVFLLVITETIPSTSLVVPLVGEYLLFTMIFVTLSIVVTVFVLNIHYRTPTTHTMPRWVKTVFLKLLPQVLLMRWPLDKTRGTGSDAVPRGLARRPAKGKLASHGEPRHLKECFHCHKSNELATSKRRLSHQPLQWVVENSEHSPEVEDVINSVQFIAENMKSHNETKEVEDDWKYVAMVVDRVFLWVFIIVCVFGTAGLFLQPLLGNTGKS
Neuronal acetylcholine receptor; alpha3/beta2, sequence (P17787 whole entry): as the sequence (P17787 whole entry) above
Neuronal acetylcholine receptor; alpha3/beta2, sequence (P32297 whole entry): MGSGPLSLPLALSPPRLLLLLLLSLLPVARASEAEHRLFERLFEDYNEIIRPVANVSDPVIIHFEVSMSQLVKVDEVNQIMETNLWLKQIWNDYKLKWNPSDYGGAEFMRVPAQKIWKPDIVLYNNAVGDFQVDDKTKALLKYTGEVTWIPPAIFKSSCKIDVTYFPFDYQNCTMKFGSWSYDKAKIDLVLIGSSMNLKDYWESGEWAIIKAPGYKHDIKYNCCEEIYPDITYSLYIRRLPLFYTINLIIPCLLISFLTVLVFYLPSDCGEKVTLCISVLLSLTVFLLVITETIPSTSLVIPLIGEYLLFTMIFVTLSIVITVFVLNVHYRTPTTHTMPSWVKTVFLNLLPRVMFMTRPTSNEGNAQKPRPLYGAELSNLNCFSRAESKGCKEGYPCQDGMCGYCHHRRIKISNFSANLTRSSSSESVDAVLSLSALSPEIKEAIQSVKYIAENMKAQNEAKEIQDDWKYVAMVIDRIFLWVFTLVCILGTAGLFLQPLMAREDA

| SMILES | IC50 [1] [nM] | IC50 [2] [nM] | Selectivity ratio (Macaca mulatta [3]) | Activity (Macaca mulatta [4]) [fM] | Activity (Macaca mulatta [5]) [pM] | Ratio IC50 [6] | Selectivity ratio [7] |
| --- | --- | --- | --- | --- | --- | --- | --- |
| CC(C)C[C@H](NC(=O)[C@H](CC(N)=O)NC(=O)[C@H](CO)NC(=O)[C@H](Cc1cnc[nH]1)NC(=O)[C@H](CCC(=O)O)NC(=O)[C@H](CC(C)C)NC(=O)[C@H](Cc1cnc[nH]1)NC(=O)[C@H](CS)NC(=O)[C@@H](NC(=O)[C@@H]1CCCN1C(=O)[C@H](CC(N)=O)NC(=O)[C@H](CO)NC(=O)[C@H](CS)NC(=O)[C@H](CS)NC(=O)CN)C(C)C)C(=O)N[C@@H](CS)C(=O)O | 0.5 | 0.39 |  |  |  |  |  |
| CC(C)C[C@H](NC(=O)[C@H](Cc1cnc[nH]1)NC(=O)[C@H](CS)NC(=O)[C@@H](NC(=O)[C@@H]1CCCN1C(=O)[C@H](CC(N)=O)NC(=O)[C@H](CO)NC(=O)[C@H](CS)NC(=O)[C@H](CS)NC(=O)CN)C(C)C)C(=O)N[C@@H](C)C(=O)N[C@@H](Cc1cnc[nH]1)C(=O)N[C@@H](CO)C(=O)N[C@@H](CC(N)=O)C(=O)N[C@@H](CC(C)C)C(=O)N[C@@H](CS)C(=O)O (H-GCCSNPVCHLAHSNLC-OH) | 8.72 | 0.16 | 5300 | 9.7 | 51 | 54.5 |  |
| CC[C@H](C)[C@H](NC(=O)[C@H](CCC(N)=O)NC(=O)[C@@H]1CCCN1C(=O)[C@H](CC(N)=O)NC(=O)[C@H](Cc1cnc[nH]1)NC(=O)[C@@H](NC(=O)[C@@H](NC(=O)[C@H](CS)NC(=O)[C@@H](NC(=O)[C@@H]1CCCN1C(=O)[C@H](CC(N)=O)NC(=O)[C@H](CO)NC(=O)[C@H](CS)NC(=O)[C@H](CS)NC(=O)[C@@H]1CCCN1C(=O)[C@H](CC(=O)O)NC(=O)[C@@H](N)CCCNC(=N)N)C(C)C)[C@@H](C)O)C(C)C)C(=O)N[C@@H](CS)C(=O)O (H-RDPCCSNPVCTVHNPQIC-OH) | 74.2 | 0.95 |  |  |  | 78.1 | 75 |
| CC[C@H](C)[C@H](NC(=O)[C@H](Cc1cnc[nH]1)NC(=O)[C@H](CCC(N)=O)NC(=O)[C@H](CC(N)=O)NC(=O)[C@H](CC(N)=O)NC(=O)CNC(=O)[C@H](C)NC(=O)[C@H](CS)NC(=O)[C@H](C)NC(=O)[C@@H]1CCCN1C(=O)[C@H](Cc1cnc[nH]1)NC(=O)[C@H](CO)NC(=O)[C@H](CS)NC(=O)[C@H](CS)NC(=O)CN)C(=O)N[C@@H](CS)C(=O)O | 1.1 | 3 |  |  |  | 0.4 |  |

Reference: ChEMBL document CHEMBL1152511, “Structural basis for alpha-conotoxin potency and selectivity” (Bioorg Med Chem, 2009)
